PMC11173897, “Computational Docking as a Tool in Guiding the Drug Design of Rutaecarpine Derivatives as Potential SARS-CoV-2 Inhibitors” (Molecules, 2024)

Key:
[1] = molecular target: T1, S-protein–ACE2 complex (Severe acute respiratory syndrome coronavirus 2, UniProt P0DTC2); assay: S-protein-based ELISA (spike–ACE2 binding assay kit); set-up: species or system SARS-CoV-2; conditions: for IC50: tested at 0.1, 1, 5, 10, 20 µM, n = 4, read-out: IC50, disrupting the S-protein–ACE2 complex; for maximal inhibition, higher than that of RU: S-protein-based ELISA, compared with RU
T1 construct: purchased ImmunoDiagnostics Ltd., Hong Kong, China
Excerpt: An S-protein-based ELISA was utilized to determine the binding activities of RU-75 and RU-184 to the S-protein–ACE2 complex. A standard inhibitor, provided by the supplier (calibrated to NIBSC code 20/136), was employed as a positive control (Figure 6A). […] The maximal inhibition, triggered by RU-75 and RU-184, was at least 20% higher than that of RU.
(A) A standard inhibitor, provided by supplier (calibrated to NIBSC code 20/136), was used as a positive control. (B) Rutaecarpine, RU-75 and RU-184 were detected at concentrations of 0.1, 1, 5, 10, 20 µM. The IC50 values are shown.
Spike (S)-protein inhibition was analyzed with the SARS-CoV-2 spike–ACE2 binding assay kit (ImmunoDiagnostics Ltd., Hong Kong, China), according to the manufacturer’s instructions. The reaction was terminated by the addition of 2 M H2SO4, and the data were quantified using a microplate reader (FlexStation; Molecular Devices, San Jose, CA). The percentage of inhibition was calculated as follows:
Percentage of inhibition = (PAvg − SAvg)/PAvg × 100%, where PAvg and SAvg are the mean OD values of the positive control and test sample, respectively.

[2] = molecular target: T2, SARS-CoV-2 3CL protease (Severe acute respiratory syndrome coronavirus 2, UniProt P0DTD1); assay: 3CL protease assay (SensoLyte fluorogenic kit); type: biochemical; conditions: n = 4
[3] = test system: cells; conditions: MTT assay, Figure S1
[4] = molecular target: T1, S-protein–ACE2 complex; conditions: cited from earlier work
[5] = test system: wild-type SARS-CoV-2 pseudovirus; conditions: cited from earlier work
[6] = test system: TNF-α, IL-6 and IL-1β mRNA in RAW264.7 cells; conditions: previous investigation; cited from earlier work
[7] = molecular target: T2, SARS-CoV-2 3CL protease; conditions: cited from earlier work
[8] = test system: TNF-α, IL-6 and IL-1β mRNA in RAW264.7 cells; type: cell-based
[9] = test system: TNF-α, IL-6 and IL-1β mRNA in RAW264.7 cells; type: cell-based; conditions: co-treated with LPS 0.1 µg/mL, 24 h, Figure S2

Structure (SMILES) | IC50 [1] | IC50 [2] | cell toxicity (cell viability) [3] | formation of the S-protein–ACE2 complex [4] | entry of SARS-CoV-2 into host cells [5] | inflammatory response induced by SARS-CoV-2 [6] | 3CL protease inhibition [7] | maximal inhibition, higher than that of RU [1] | production of inflammatory cytokines (TNF-α, IL-6 and IL-1β) [8] | inflammatory suppression [9]
O=c1c2ccccc2nc2n1CCc1c-2[nH]c2ccccc12 [RU, rutaecarpine] | 1260 nM | 1600 nM | little impact on the cell viability | inhibited the formation of the S-protein–ACE2 complex | prevented the entry of SARS-CoV-2 into host cells | attenuated the inflammatory response | inhibit the 3CL protease |  |  | 
O=c1c2ccc(Nc3ccccc3)cc2nc2n1CCc1c-2[nH]c2ccccc12 [RU-75] | 1030 nM | 1310 nM | little impact on the cell viability |  |  |  |  | at least 20% | significantly reduced | no significant inflammatory suppression
O=C1c2ccc(Nc3ccccc3)cc2NC2=NCCc3c2n1c1ccccc31 [RU-184] | 780 nM | 1030 nM | little impact on the cell viability |  |  |  |  | at least 20% | significantly reduced | no significant inflammatory suppression
